This is an account of results in patent US7189761B2, “Nitric oxide donor composition and method for treatment of anal disorders” (priority 1994, dated 2007).

In experiment [1] the test system is smooth muscle strips of the internal anal sphincter (IAS). Particulars: cited from earlier work.
The subject of experiment [2] is internal anal sphincter (IAS). The settings on record: cited from earlier work; for reversal of the L-NNA suppression of rectoanal reflex-induced IAS relaxation: in vivo; for effect on the decrease in IAS resting pressures in response to the rectoanal reflex: reflex mimicked by rectal balloon distention.
Experiment [3] relates to human internal anal sphincter muscle strips. Particulars: cited from earlier work; for effect on relaxations produced by transmural field stimulation: in the presence of atropine and guanethidine.
The test system of the next experiment is anal fissure. As to the kind of experiment: Case reports: topical ointment in patients with anal fissure. In kind it is in vivo, human. Particulars: person, superficial posterior midline anal fissure, patient history. The procedure:
The patient rated their pre-treatment pain 7/10. The patient applied approximately 500 mg of the ointment as prepared in Example 1, three times daily and after bowel movements. The patient reported that their pain was gone following initial application.
The patient rated their pre-treatment pain 7/10. The patient applied approximately 500 mg of the ointment as prepared in Example 1, three times daily and after bowel movements. […] After three weeks of treatment, the fissure was healed, and the pain was gone.
They had previously failed a course of hydrocortisone therapy. Pre-treatment pain was rated 9/10. The patient was treated with approximately 500 mg of the preparation of Example 1, three times daily and after bowel movements. After one week of treatment, the fissure was still present, and pain was rated 8/10. The patient was then treated with approximately 500 mg of the preparation of Example 2, three times daily and after bowel movements. Following one week of therapy with the ointment as of Example 2, the patient reported no pain and no bleeding.
Pre-treatment pain was rated 4/10. The patient was treated with the ointment as of Example 2, approximately 500 mg three times daily and after bowel movements. Following one week of therapy, the patient reported that their pain had diminished, and it was rated 2/10. […]

[4] abbreviates: isolated IAS smooth muscle strips.
Setting [5] is: response to lower frequencies of EFS and DMPP.

Read-outs that look alike come from different tables or passages of the source. Ends that are not written are not given here.

On to “vasoactive intestinal polypeptide: vasoactive intestinal polypeptide (HSDAVFTDNYTRLRKQMAVKKYLNSILN; ends and bridges not checked; UniProt P01282 125-152, looked up)”, for which, in experiment [1] (setting [4]), the “IAS relaxation and release of NO” value was “release of NO”.
For `N=C(N)NCCC[C@H](N)C(=O)O` [L-arginine], in experiment [2], the “reversal of the L-NNA suppression of rectoanal reflex-induced IAS relaxation” value is “completely reversed”. Further, in experiment [3], the “reversal of the inhibitory effects of NO synthase antagonists” value is on record as “reversed”. The “reversal of the loss of NO release and IAS relaxation” value in experiment [1] is “reversed to control levels”.
For atrial natriuretic factor, the “IAS relaxation and release of NO” value in experiment [1] (setting [4]) is “caused IAS relaxation without any increase in NO release”.
As for `N=C(N)NCCC[C@@H](N)C(=O)O` [D-arginine], the “reversal of the L-NNA suppression of rectoanal reflex-induced IAS relaxation” value in experiment [2] is given as “failed to reverse”. Further, the “reversal of the inhibitory effects of NO synthase antagonists” value in experiment [3] is on record as “did not reverse”. Moreover, in experiment [1], the “reversal of the loss of NO release and IAS relaxation” value is “no significant effect”.
Consider `NC(=NCCC[C@@H](N)C(=O)O)N[N+](=O)[O-]` [D-NNA], for which, in experiment [2], the “effect on the decrease in IAS resting pressures in response to the rectoanal reflex” value is “no effect”. The “effect of pretreatment on NO release and fall in IAS resting tension” value in experiment [1] (setting [5]) is “no significant effect”.
As for `C[C@]12CCC(=O)C=C1CC[C@@H]1[C@@H]2[C@@H](O)C[C@@]2(C)[C@H]1CC[C@]2(O)C(=O)CO` [hydrocortisone, 11-17-21-trihydroxypregn-4-ene-3,20-dione], the “outcome of previous course of therapy” value with anal fissure is given as “failed”.
Turning to `CC(C)NCC(O)c1ccc(O)c(O)c1` (centres unmarked) [isoproterenol], the “effect on the resting pressure of the IAS” value in experiment [2] (not modified by L-NNA) was “decrease”. Also, in experiment [1] (setting [4]), the “IAS relaxation and release of NO” value is given as “caused IAS relaxation without any increase in NO release”.
Consider `NC1=N[C@H](O)[C@H]2[C@H]3O[C@]4(O)O[C@@H]([C@@H](O)[C@@]2(N1)[C@@H]4O)[C@]3(O)CO` [tetrodotoxin], for which the “effect of pretreatment on NO release and fall in IAS resting tension” value in experiment [1] was “abolished”.
Turning to `C[N+]1(C)CCN(c2ccccc2)CC1` [DMPP, 1,1-dimethyl-4-phenylpiperazinium], in experiment [1], the “IAS relaxation and release of NO” value is “caused IAS relaxation with an accompanying release of NO”.
Regarding oxyhaemoglobin, in experiment [3], the “effect on relaxations produced by transmural field stimulation” value is “abolished”.
For the compound `N=C(NCCC[C@H](N)C(=O)O)N[N+](=O)[O-]` [L-NNA, L-NG-nitro-arginine], the “effect on the decrease in IAS resting pressures in response to the rectoanal reflex” value in experiment [2] is given as “significant dose-dependent suppression”. Moreover, the “effect on relaxations produced by transmural field stimulation” value in experiment [3] is recorded as “completely”. Besides, in experiment [1] (IAS smooth muscle strips), the “effect on NO release caused by vasoactive intestinal polypeptide” value is on record as “abolished”. Also, the “effect of pretreatment on NO release and fall in IAS resting tension” value in experiment [1] (setting [5]) is recorded as “abolished”.
